Assay [1] can be described thus: Insulin bioassay: acid-ethanol tissue extracts injected into newborn mice, blood glucose. In kind it is in vivo, mouse. As for the experimental part: Insulin bioassay. Acid-ethanol extracts were prepared from neonatal (P3) gut, liver, and pancreas (35). Tissue extract or recombinant human insulin (Humulin R, Eli Lilly) (10 U/ml in acid-ethanol) were mixed with either insulin neutralizing antibody (Thermo Scientific) or isotype-matched mouse IgG1 (Ebiosciences) for subcutaneous injections in 50 microliters volume. Glucose was measured immediately prior to and 5 minutes after injections.
To examine whether intestinal insulin secreted by Gut Ins+ cells is bioactive, acid-ethanol extracts from NKO gut were prepared, extracts were also prepared from gut, pancreas and liver of WT mice, and injected into newborn mice. Extracts from newborn NKO intestine lowered blood glucose by about 20%, similar to pancreatic extracts from age-matched control mice or recombinant human insulin (FIG. 3C). In contrast, extracts from control intestines or liver had no effect. The ability of NKO gut extracts (reflecting the presence of Gut Ins+ cells) to lower blood glucose was preempted by the addition of an insulin-neutralizing antibody, as was pancreatic extracts from control mice and recombinant insulin.

A further assay concerns the target KATP channel (Mus musculus, UniProt B2RUS7). The note with it: NKO gut segments, 1 hr; 10 nM glibenclamide or 0.5 mM diazoxide.

KATP channel, sequence (B2RUS7 1-1588): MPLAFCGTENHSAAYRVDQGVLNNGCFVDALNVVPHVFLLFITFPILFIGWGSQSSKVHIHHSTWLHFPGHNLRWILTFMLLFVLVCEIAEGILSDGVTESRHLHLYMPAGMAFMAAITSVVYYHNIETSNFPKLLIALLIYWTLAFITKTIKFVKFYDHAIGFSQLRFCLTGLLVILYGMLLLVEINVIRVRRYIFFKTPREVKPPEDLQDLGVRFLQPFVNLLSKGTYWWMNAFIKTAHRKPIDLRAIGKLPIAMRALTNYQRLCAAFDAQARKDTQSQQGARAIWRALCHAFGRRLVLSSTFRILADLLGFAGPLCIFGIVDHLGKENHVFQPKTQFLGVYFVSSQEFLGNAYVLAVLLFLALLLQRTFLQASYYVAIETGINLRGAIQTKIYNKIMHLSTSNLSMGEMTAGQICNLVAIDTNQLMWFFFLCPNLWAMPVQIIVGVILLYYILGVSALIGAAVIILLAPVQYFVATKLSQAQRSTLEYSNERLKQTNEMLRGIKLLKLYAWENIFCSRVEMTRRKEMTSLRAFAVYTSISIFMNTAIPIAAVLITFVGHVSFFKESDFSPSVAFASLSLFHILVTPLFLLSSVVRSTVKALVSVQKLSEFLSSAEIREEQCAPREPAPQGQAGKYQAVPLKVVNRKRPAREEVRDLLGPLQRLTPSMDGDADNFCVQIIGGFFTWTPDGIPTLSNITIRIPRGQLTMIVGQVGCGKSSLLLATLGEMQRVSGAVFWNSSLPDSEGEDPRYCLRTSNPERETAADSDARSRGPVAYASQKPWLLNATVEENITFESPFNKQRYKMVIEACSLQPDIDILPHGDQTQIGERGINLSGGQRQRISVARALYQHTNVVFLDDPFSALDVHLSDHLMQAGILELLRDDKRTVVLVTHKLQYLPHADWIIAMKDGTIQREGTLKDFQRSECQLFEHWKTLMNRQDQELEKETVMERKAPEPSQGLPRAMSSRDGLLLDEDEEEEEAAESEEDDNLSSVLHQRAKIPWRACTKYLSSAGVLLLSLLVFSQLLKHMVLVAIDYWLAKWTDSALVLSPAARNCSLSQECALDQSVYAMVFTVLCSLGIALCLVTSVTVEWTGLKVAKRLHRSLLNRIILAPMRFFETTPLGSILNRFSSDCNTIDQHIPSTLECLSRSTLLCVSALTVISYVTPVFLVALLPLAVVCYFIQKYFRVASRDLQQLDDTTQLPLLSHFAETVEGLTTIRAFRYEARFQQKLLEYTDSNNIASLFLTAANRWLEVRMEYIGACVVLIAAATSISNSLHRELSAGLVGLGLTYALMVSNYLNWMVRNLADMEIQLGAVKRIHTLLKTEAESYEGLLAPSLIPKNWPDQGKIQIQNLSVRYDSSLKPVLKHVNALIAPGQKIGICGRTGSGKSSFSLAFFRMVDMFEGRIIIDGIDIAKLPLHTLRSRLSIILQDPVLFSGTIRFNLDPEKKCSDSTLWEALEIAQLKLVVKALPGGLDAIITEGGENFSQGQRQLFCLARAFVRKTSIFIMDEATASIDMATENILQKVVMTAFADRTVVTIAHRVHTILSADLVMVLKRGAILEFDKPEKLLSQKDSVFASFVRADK
KATP channel, sequence (Q61743 whole entry partner): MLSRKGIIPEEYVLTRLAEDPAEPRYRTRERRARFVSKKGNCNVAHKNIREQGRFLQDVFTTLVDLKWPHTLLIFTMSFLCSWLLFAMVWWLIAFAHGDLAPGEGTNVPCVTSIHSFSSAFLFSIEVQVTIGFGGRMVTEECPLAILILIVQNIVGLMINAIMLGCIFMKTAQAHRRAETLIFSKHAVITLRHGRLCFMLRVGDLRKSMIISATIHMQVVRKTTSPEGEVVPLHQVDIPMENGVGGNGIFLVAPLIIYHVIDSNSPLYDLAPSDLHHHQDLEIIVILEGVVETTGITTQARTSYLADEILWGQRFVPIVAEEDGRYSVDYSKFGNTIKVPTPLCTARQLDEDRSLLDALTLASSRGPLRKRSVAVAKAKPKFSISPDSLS
Experimental for KATP channel: Adult intestine was stained in medium containing 0.12 mM Dithizone (DTZ) (10) and selected 5-inches-long DTZ+ fragments from NKO mice or anatomically matched control mice. The intestines were cut open and incubated in glucose-free DMEM supplemented with 10% FBS and 20 mM glucose for 30 min. At the end of the incubation, insulin and C peptide 2 content was measured in the medium by ELISA (Millipore). Collagenase-purified pancreatic islets from 14-week-old WT mice served as controls (5).
To determine whether Ggut Ins^+ cells are functionally competent to secrete insulin, we performed ex vivo assays of insulin secretion in response to glucose and KATP channel modulators, using DTZ staining to select gut segments enriched in Ins^+ cells from NKO mice and anatomically matched segments from control mice.
Adult intestine were strained in medium containing 0.12 mM Dithizone (DTZ) (Tuttle et al Nat Med, 2001) and selected 5-inches-long DTZ+ fragments from NKO mice or anatomically matched fragments from control WT mice. […] At the end of the incubation, we measured insulin and C-peptide 2 content in the medium by ELISA (Millipore). Collagenase-purified pancreatic islets from 14-week-old WT mice served as controls (Kitamura et al., MCB 2009). Experiments were carried out using adult intestines (n=4).

Regarding “recombinant human insulin: recombinant human insulin (Humulin R, Eli Lilly), 10 U/ml in acid-ethanol”, the “lowering of blood glucose (in words)” value in assay [1] (injected into newborn mice, compared with NKO intestine extract) is “similar”. The “ability to lower blood glucose after addition of insulin-neutralizing antibody” value in assay [1] (sample mixed with insulin-neutralizing antibody) is reported as “preempted”.

In the case of `CC1=NS(=O)(=O)c2cc(Cl)ccc2N1` [diazoxide], at KATP channel, the “effect on glucose-induced insulin release from NKO gut” value is reported as “blunted”.

Values taken from patent publication US10544415B2, “Methods for producing enteroendocrine cells that make and secrete insulin” (The Trustees Of Columbia University In The City Of New York, priority 2010, dated 2020).
